Measured values reported in US9006191B2, “Silencing of polo-like kinase expression using interfering RNA” (Protiva Biotherapeutics, Inc., priority 2007, dated 2015).
“Also recorded” adds a separate entry of the source.

Tests used:
[1] = system: HT29 cells; assay: HT29 cell viability assay (CellTiter-Blue); assay type: cell-based, human; details: for anti-proliferative activity in screen of PLK-1 siRNA panel: HT29 cells, 1, 5, 25 nM, 72 h; for cell viability / killing of human tumor cells: HT29 cells, SNALP-formulated siRNA at a range of siRNA concentrations, viability at 72 h relative to PBS
Protocol: (§1) Various PLK-1 siRNAs were formulated as SNALP (“2:40” SNALP formulation: 2% PEG-cDMA; 40% DLinDMA; 10% DSPC; and 48% cholesterol) and evaluated for their inhibitory effects on cell growth in vitro. HT29 (human colon adenocarcinoma) or Neuro2A (mouse neuroblastoma) cells were treated with various PLK-1 SNALP at a range of siRNA concentrations and their effect on cell viability was evaluated. Viability of cell cultures is expressed as % viability relative to PBS treated controls.
Additional PLK-1 siRNA molecules were formulated as SNALP (“2:40” SNALP formulation: 2% PEG-cDMA; 40% DLinDMA; 10% DSPC; and 48% cholesterol) and evaluated for their inhibitory effects on cell growth in vitro. HT29 or Neuro2A cells were plated in triplicate at 5000 cells/well and 2500 cells/well, respectively. PLK-1 SNALP dosages were as follows: 25 nM; 5 nM; and 1 nM. Cell viability analysis was performed at 72 hours following transfection. SNALP containing a non-targeting (GFP) siRNA were used as a negative control. […]
PLK-1 siRNA molecules containing 2′-O-methyl (2′OMe) nucleotides at selective positions within the double-stranded region of the siRNA duplex were formulated as SNALP (“2:40” SNALP formulation: 2% PEG-cDMA; 40% DLinDMA; 10% DSPC; and 48% cholesterol) and evaluated for their inhibitory effects on cell growth in vitro. HT29 cells were plated in triplicate at 5000 cells/well. Cell viability analysis was performed at 72 hours following transfection with a range of PLK-1 SNALP dosages. SNALP containing a non-targeting (GFP) siRNA were used as a negative control.
Cell viability assays. […] Cell viability analysis was performed at 72 hours following transfection with a range of PLK-1 SNALP dosages.

[2] = system: Neuro2A cells; assay: Neuro2A cell viability assay (CellTiter-Blue); assay type: cell-based; details: mouse Neuro2A cells, SNALP-formulated siRNA, viability at 72 h relative to PBS
Protocol: as §1
Additional PLK-1 siRNA molecules were formulated as SNALP (“2:40” SNALP formulation: 2% PEG-cDMA; 40% DLinDMA; 10% DSPC; and 48% cholesterol) and evaluated for their inhibitory effects on cell growth in vitro. HT29 or Neuro2A cells were plated in triplicate at 5000 cells/well and 2500 cells/well, respectively. PLK-1 SNALP dosages were as follows: 25 nM; 5 nM; and 1 nM. Cell viability analysis was performed at 72 hours following transfection. SNALP containing a non-targeting (GFP) siRNA were used as a negative control.
Additional PLK-1 siRNA molecules were formulated as SNALP (“2:40” SNALP formulation: 2% PEG-cDMA; 40% DLinDMA; 10% DSPC; and 48% cholesterol) and evaluated for their inhibitory effects on cell growth in vitro. HT29 or Neuro2A cells were plated in triplicate at 5000 cells/well and 2500 cells/well, respectively. PLK-1 SNALP dosages were as follows: 30 nM; 10 nM; and 3.3 nM. Cell viability analysis was performed at 72 hours following transfection. SNALP containing a non-targeting (GFP) siRNA were used as a negative control.

[3] = system: Hep3B liver tumors; assay: Intrahepatic Hep3B tumor model (survival, body weight, tumor burden); assay type: in vivo
Protocol: SNALP containing PLK-1 siRNA (“1:57” SNALP formulation: 1.4% PEG-cDMA; 57.1% DLinDMA; 7.1% DPPC; and 34.3% cholesterol) were tested for their effects on the survival of […] mice bearing Hep3B liver tumors.
Intrahepatic tumor models. Liver tumors were established in mice by direct intrahepatic injection of Hep3B or Neuro2a tumor cells (45). Female scid/beige mice (Charles River Laboratories) and male A/J mice (Jackson Laboratories) were used as hosts for the Hep3B and Neuro2a tumors, respectively. Animals received Anafen by SC injection immediately prior to surgery. Individual mice were anaesthetized by isoflourane gas inhalation and eye lube applied to prevent excessive eye drying. While maintained under gas anaesthesia, a single 1.5 cm incision across the midline was made below the sternum and the left lateral hepatic lobe exteriorized. 1×10^6 Hep3B cells or 1×10^5 Neuro2a cells suspended in 25 μL PBS were injected slowly into the lobe at a shallow angle using a Hamilton syringe and 30G needle. A swab was then applied to the puncture wound to stop any bleeding prior to suturing. Mice were allowed to recover from anaesthesia in a sterile cage and monitored closely for 2-4 h before being returned to conventional housing.
Eight to 11 days after tumor implantation, mice were randomized into treatment groups. siRNA SNALP formulations or PBS vehicle control were administered by standard intravenous injection via the lateral tail vein, calculated on a mg siRNA/kg basis according to individual animal weights (10 mL/kg injection volume). Body weights were then monitored throughout the duration of the study as an indicator of developing tumor burden and treatment tolerability. For efficacy studies, defined humane endpoints were determined as a surrogate for survival. Assessments were made by qualified veterinary technicians based on a combination of clinical signs, weight loss, and abdominal distension to define the day of euthanization due to tumor burden.
Measurement of human PLK-1 and GAPDH mRNA in tumor tissues. Tumors were harvested directly into RNALater and stored at 4° C. until processing. 100 mg tumor tissue was homogenized in Tissue and Lysis Solution (EpiCentre Biotechnologies) containing […] proteinase K (EpiCentre) in a Fastprep tissue homogenizer followed by incubation in a 65° C. waterbath for 15 min and centrifuged to clarify lysates. mRNA analysis in FIG. 33B was performed on purified RNA isolated according the 5′-RACE-PCR protocol. Human PLK-1 and GAPDH mRNA were measured in tumor lystes by the QuantiGene bDNA assay (Panomics) as per the manufacturer's instructions (Quantigene 1.0 Manual). […] Data were expressed as mean PLK-1:GAPDH ratio+/−SD of individual animals. Tumor burden was assessed by homogenizing the complete liver from tumor bearing mice and measuring the total hGAPDH signal (RLU's) within the liver. Values were expressed as hGAPDH RLU/mg total liver.

[4] = Hep3B-nu/nu mouse model, 2 mg/kg twice weekly d11-d28

Substance | anti-proliferative activity in screen of PLK-1 siRNA panel [1] | cell viability / killing of human tumor cells [1] | cell viability / inhibition of cell growth [2] | median survival, Study (A) [3, 4] [days] | median survival, study (B) [3, 4] [days] | mice with visible tumors at autopsy ([3]; day 22, 1 day after fifth 2 mg/kg dose) | survival advantage (Kaplan-Meier, Log-rank) ([3]; scid/beige mice, 6 × 2 mg/kg IV twice weekly, d 10 to d 28)
PLK1424: siRNA to human PLK-1, SEQ ID NO:1/2 (UU overhang form 211/212) (chain 1 AGAUCACCCUCCUUAAAUA; chain 2 UAUUUAAGGAGGGUGAUCU; further chemistry not given here) | most potent human siRNA | highly potent at killing human tumor cells; also recorded: most potent effects; also recorded: inhibiting cell growth; also recorded: dose-dependent decrease in cell viability | inactivity in the mouse cell line | 45 | 42 | – | –
PLK1424-2/A: 2′OMe-modified PLK1424 duplex, SEQ ID NO:214/215 (same SEQ IDs as PLK1424 1/3 of Table 11) (chain 1 AGANCACCCNCCUNAAANAUU; chain 2 UAUUUAANGAGGGUGANCUUU; siRNA; 2'-O-methyl modifications at selected positions, key for n not given here) | – | – | – | – | – | 2 of 6 | significant survival advantage over control treatment
PLK773: siRNA to human PLK-1, SEQ ID NO:3/4 (UU overhang form 218/219) (chain 1 AGACCUACCUCCGGAUCAA; chain 2 UUGAUCCGGAGGUAGGUCU; RNA, backbone not given here) | most potent mouse, rat, and human cross-reactive siRNA | effective at killing human tumor cells; also recorded: inhibiting cell growth; also recorded: dose-dependent decrease in cell viability | most potent human/mouse cross-reactive siRNA molecules | – | – | – | –
